Results published in the kinase profiling compilation of Christmann-Franck et al. (2016).

Tests used:
Assay in all cases: KINOMEscan competition binding
Conditions in all cases: compound 10.0 µM
AURKC (human) = AURKC (human) (UniProt Q9UQB9)
CAMK2G (human) = CAMK2G (human) (UniProt Q13555)
CDK17 (human) = CDK17 (human) (UniProt Q00537)
EPHB1 (human) = EPHB1 (human) (UniProt P54762)
ERBB4 (human) = ERBB4 (human) (UniProt Q15303)
FGFR1 (human) = FGFR1 (human) (UniProt P11362)
FRK (human) = FRK (human) (UniProt P42685)
HCK (human) = HCK (human) (UniProt P08631)
[1] = target: JAK1 JH2 pseudokinase (human) (UniProt P23458)
MAP3K11 (human) = MAP3K11 (human) (UniProt Q16584)
MAP3K9 (human) = MAP3K9 (human) (UniProt P80192)
MAPK11 (human) = MAPK11 (human) (UniProt Q15759)
MAPKAPK5 (human) = MAPKAPK5 (human) (UniProt Q8IW41)
MARK3 (human) = MARK3 (human) (UniProt P27448)
MKNK2 (human) = MKNK2 (human) (UniProt Q9HBH9)
MKNK2 (human), sequence (Q9HBH9 whole entry, looked up): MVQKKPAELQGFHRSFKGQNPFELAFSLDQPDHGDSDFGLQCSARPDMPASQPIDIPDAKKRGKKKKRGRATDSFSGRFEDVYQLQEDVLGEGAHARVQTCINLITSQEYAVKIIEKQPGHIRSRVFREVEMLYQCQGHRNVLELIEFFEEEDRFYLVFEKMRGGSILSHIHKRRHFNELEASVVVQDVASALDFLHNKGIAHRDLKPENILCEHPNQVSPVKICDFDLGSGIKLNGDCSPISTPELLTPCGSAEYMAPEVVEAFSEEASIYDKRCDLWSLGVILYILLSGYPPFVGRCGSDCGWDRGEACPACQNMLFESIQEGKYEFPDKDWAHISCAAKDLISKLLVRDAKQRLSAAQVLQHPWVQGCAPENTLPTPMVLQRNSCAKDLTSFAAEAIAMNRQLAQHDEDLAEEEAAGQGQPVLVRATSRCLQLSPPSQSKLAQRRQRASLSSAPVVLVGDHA

MLTK (human) = MLTK (human) (UniProt Q9NYL2)
MLTK (human), sequence (Q9NYL2 whole entry, looked up): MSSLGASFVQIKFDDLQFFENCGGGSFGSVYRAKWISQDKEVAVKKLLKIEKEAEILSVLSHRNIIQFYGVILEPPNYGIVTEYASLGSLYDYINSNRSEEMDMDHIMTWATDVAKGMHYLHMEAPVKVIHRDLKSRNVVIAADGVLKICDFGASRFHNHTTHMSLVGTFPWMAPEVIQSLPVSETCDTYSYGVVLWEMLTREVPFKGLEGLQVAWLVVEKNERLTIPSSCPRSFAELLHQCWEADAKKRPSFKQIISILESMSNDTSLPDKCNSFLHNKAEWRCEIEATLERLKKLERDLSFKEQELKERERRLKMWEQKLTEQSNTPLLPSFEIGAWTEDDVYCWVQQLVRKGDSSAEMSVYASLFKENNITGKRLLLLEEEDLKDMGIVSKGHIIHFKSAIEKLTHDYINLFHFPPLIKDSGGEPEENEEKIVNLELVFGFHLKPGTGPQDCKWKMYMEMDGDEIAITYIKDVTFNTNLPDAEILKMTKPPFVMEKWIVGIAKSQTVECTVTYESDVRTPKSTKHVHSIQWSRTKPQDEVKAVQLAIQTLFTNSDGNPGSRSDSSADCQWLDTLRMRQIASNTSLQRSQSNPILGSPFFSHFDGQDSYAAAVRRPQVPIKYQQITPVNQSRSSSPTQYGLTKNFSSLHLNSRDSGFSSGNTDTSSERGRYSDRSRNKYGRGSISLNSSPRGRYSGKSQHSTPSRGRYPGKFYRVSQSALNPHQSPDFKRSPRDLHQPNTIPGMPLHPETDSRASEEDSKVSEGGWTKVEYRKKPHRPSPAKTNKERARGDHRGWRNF

MYLK (human) = MYLK (human) (UniProt Q15746)
MYLK (human), sequence (Q15746 whole entry, looked up): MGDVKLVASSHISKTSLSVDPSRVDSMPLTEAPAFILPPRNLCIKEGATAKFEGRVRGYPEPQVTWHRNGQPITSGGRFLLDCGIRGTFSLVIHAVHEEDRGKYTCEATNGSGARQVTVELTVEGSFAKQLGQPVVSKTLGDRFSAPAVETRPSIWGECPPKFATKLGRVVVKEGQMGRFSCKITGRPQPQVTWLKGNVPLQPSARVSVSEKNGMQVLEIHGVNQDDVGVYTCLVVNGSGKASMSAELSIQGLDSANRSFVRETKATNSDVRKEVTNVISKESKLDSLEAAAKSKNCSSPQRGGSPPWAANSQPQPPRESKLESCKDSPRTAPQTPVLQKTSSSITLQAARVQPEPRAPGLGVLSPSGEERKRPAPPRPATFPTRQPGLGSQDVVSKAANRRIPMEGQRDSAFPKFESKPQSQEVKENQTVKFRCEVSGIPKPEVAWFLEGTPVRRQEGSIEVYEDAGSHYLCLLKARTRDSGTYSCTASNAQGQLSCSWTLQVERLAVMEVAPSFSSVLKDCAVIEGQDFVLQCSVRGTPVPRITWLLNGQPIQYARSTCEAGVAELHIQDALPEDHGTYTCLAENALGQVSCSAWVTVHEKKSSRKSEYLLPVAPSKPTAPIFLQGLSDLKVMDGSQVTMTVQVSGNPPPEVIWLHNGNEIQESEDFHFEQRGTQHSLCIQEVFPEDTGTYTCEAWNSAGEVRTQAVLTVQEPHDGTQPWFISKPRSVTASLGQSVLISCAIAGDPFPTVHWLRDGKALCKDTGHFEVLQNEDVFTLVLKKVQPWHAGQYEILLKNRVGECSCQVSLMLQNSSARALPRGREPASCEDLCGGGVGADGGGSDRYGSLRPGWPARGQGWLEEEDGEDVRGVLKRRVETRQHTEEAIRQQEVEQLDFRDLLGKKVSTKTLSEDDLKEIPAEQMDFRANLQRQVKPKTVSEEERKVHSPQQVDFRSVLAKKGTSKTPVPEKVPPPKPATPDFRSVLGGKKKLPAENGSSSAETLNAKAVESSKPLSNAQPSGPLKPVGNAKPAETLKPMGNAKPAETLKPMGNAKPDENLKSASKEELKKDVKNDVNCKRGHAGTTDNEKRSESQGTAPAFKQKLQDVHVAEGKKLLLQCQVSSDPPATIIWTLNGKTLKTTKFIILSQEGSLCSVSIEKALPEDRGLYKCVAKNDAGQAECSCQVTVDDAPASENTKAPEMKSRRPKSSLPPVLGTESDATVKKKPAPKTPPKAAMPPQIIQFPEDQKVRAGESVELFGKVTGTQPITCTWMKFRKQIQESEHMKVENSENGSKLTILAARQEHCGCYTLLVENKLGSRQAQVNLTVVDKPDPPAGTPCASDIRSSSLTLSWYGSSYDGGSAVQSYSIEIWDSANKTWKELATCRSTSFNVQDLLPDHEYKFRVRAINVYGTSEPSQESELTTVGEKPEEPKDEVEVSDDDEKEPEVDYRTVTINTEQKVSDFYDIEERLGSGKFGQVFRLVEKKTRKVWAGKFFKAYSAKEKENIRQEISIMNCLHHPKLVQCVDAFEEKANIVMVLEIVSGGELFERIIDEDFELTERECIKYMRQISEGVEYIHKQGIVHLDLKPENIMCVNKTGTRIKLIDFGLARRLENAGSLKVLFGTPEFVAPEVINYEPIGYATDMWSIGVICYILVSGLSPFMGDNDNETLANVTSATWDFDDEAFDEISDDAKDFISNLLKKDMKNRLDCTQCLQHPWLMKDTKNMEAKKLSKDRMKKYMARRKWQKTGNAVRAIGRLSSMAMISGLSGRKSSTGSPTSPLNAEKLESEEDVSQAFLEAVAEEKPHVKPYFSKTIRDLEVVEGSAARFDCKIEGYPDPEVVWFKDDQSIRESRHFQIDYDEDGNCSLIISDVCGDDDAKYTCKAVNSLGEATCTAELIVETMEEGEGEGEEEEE

MYLK4 (human) = MYLK4 (human) (UniProt Q86YV6)
NUAK1 (human) = NUAK1 (human) (UniProt O60285)
PAK7 (human) = PAK7 (human) (UniProt Q9P286)
PHKG2 (human) = PHKG2 (human) (UniProt P15735)
PRKX (human) = PRKX (human) (UniProt P51817)
PRKX (human), sequence (P51817 whole entry, looked up): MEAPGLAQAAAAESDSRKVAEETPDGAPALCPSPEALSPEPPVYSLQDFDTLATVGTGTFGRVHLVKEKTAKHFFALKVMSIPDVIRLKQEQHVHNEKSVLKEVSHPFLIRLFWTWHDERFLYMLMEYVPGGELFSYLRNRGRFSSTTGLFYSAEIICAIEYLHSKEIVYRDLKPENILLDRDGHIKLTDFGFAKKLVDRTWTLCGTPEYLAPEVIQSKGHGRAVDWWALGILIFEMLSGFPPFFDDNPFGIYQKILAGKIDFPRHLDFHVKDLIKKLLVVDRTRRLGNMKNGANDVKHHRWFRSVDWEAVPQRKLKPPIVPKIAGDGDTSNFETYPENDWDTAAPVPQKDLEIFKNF

RAF1 (human) = RAF1 (human) (UniProt P04049)
RIPK1 (human) = RIPK1 (human) (UniProt Q13546)
ROS1 (human) = ROS1 (human) (UniProt P08922)
SLK (human) = SLK (human) (UniProt Q9H2G2)
STK3 (human) = STK3 (human) (UniProt Q13188)
STK3 (human), sequence (Q13188 whole entry, looked up): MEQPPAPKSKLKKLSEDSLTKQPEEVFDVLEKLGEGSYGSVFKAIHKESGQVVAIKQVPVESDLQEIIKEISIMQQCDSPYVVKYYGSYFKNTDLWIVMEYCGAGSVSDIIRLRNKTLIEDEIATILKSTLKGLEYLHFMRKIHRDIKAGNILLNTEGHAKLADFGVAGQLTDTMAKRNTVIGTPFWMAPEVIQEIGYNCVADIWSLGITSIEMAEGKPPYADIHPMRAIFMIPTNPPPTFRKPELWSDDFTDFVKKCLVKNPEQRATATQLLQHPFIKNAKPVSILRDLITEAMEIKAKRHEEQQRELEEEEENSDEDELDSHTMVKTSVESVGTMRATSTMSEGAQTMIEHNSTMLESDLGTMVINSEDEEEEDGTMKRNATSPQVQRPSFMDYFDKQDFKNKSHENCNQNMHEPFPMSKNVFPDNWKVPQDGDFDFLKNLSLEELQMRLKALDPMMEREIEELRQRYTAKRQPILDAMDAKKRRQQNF

STK36 (human) = STK36 (human) (UniProt Q9NRP7)
TIE1 (human) = TIE1 (human) (UniProt P35590)
TNIK (human) = TNIK (human) (UniProt Q9UKE5)
TNNI3K (human) = TNNI3K (human) (UniProt Q59H18)
HIPK1 (human) = HIPK1 (human) (UniProt Q86Z02)
PIK3CD (human) = PIK3CD (human) (UniProt O00329)
STK35 (human) = STK35 (human) (UniProt Q8TDR2)
TAOK1 (human) = TAOK1 (human) (UniProt Q7L7X3)
TAOK1 (human), sequence (Q7L7X3 whole entry, looked up): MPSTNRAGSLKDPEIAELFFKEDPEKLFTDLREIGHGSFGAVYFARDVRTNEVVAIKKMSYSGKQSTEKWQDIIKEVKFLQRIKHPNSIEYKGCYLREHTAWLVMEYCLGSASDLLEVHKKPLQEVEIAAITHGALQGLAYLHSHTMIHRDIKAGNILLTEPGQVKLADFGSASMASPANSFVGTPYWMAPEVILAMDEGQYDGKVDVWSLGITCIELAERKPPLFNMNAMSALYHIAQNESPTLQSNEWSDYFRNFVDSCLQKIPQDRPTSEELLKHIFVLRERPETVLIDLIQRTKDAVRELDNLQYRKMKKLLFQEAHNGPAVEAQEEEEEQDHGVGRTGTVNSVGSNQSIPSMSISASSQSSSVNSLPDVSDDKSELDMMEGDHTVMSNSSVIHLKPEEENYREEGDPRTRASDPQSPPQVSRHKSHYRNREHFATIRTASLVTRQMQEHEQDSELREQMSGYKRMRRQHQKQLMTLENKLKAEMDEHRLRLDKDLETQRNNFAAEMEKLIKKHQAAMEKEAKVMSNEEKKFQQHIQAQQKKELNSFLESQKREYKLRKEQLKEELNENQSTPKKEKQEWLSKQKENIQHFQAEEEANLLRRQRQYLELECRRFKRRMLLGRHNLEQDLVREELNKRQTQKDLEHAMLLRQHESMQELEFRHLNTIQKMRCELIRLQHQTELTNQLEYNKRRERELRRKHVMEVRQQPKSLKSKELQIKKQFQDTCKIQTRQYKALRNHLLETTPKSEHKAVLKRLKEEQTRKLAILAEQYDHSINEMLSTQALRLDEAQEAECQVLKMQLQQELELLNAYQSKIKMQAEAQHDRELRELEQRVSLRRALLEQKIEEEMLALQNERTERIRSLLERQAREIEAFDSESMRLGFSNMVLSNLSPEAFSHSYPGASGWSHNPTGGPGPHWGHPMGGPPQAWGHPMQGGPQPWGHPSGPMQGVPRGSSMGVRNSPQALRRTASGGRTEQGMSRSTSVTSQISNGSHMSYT

[2] = tested on: MET (human), P08581 [Y1235D]

Measured: kinase still bound, per cent of control

CCN(CC)CCCCNc1ncc2cc(-c3cc(OC)cc(OC)c3)c(NC(=O)NC(C)(C)C)nc2n1
12%: TIE1 (human)
0.4%: FGFR1 (human)
100%: AURKC (human) | CAMK2G (human) | CDK17 (human) | EPHB1 (human) | ERBB4 (human) | FRK (human) | HCK (human) | [1] | MAP3K11 (human) | MAP3K9 (human) | MAPK11 (human) | MAPKAPK5 (human) | MARK3 (human) | MKNK2 (human) | MLTK (human) | MYLK (human) | MYLK4 (human) | NUAK1 (human) | PAK7 (human) | PHKG2 (human) | PRKX (human) | RAF1 (human) | RIPK1 (human) | ROS1 (human) | SLK (human) | STK3 (human) | STK36 (human) | TNIK (human) | TNNI3K (human)

Cc1n[nH]c2ccc(-c3cncc(OC[C@@H](N)Cc4c[nH]c5ccccc45)c3)cc12
31%: TIE1 (human)
13%: MKNK2 (human)
16%: PAK7 (human)
100%: EPHB1 (human) | ERBB4 (human) | FGFR1 (human) | FRK (human) | HCK (human) | [1] | MAP3K11 (human) | MAP3K9 (human) | MAPK11 (human) | MAPKAPK5 (human) | MLTK (human) | NUAK1 (human) | PIK3CD (human) | RAF1 (human) | RIPK1 (human) | ROS1 (human) | SLK (human) | STK35 (human) | STK36 (human) | TNNI3K (human)
9.4%: MARK3 (human)
34%: AURKC (human)
25%: CDK17 (human)
3%: MYLK4 (human)
23%: PHKG2 (human)
3.2%: TNIK (human)
0.35%: STK3 (human)
0.05%: HIPK1 (human) | TAOK1 (human)
5.4%: CAMK2G (human)
0.1%: MYLK (human)
12%: PRKX (human)

CS(=O)(=O)N1CCN(Cc2cc3nc(-c4cccc5[nH]ncc45)nc(N4CCOCC4)c3s2)CC1
100%: AURKC (human) | CAMK2G (human) | CDK17 (human) | EPHB1 (human) | ERBB4 (human) | FGFR1 (human) | FRK (human) | HCK (human) | HIPK1 (human) | [1] | MAP3K9 (human) | MAPK11 (human) | MAPKAPK5 (human) | MARK3 (human) | [2] | MKNK2 (human) | MLTK (human) | MYLK (human) | MYLK4 (human) | NUAK1 (human) | PAK7 (human) | PHKG2 (human) | PRKX (human) | RAF1 (human) | RIPK1 (human) | ROS1 (human) | SLK (human) | STK3 (human) | STK35 (human) | STK36 (human) | TAOK1 (human) | TNIK (human) | TNNI3K (human)
5.2%: PIK3CD (human)
